Where a name gives a salt, the structure may show the parent alone.
Each compound was assayed against cathepsin B (Homo sapiens, UniProt P07858) (assay: Release of a drug moiety from a conjugate in presence of cathepsin). Conditions: 0.2 unit cathepsin B, sodium acetate buffer pH 5.5, 1 mM Cys, 2 hours at 40° C., HPLC ESI-MS analysis.
Format: biochemical
Method: The conjugate A1 was incubated with 0.2 unit of cathepsin B in sodium acetate buffer pH 5.5 and 1 mM Cys for 2 hours at 40° C.
Disappearance of the conjugate A1 and release of the corresponding compound of formula (II), i.e. compd. 37, as well as of its precursor A3, confirms the breaking of the Z peptidic linker of the conjugate.

| SMILES | release of the compound of formula (II) (compd. 37) from the conjugate |
| --- | --- |
| Cc1csc2c(OC(=O)N(C)CCN(C)C(=O)OCc3ccc(NC(=O)[C@H](CCCNC(N)=O)NC(=O)[C@@H](NC(=O)CCCCCN4C(=O)CC(SC[C@H](N)C(=O)O)C4=O)C(C)C)cc3)cc3c(c12)[C@H](CCl)CN3C(=O)c1cc2cc(OCCN3CCCC3)ccc2[nH]1 (stereo partly shown) [conjugate A1] | Complete release |

These compounds were tested on A2780 human ovarian cancer cells (assay: In vitro cell proliferation assay (CellTiter-Glo)). Conditions: A2780 human ovarian cancer cells, 72 h treatment, CellTiter-Glo; read-out: IC50 value.
Format: cell-based
Method: A2780 human ovarian and MCF7 human breast cancer cells (1250 cells/well) were seeded in white 384 well-plates in complete medium (RPMI1640 or EMEM plus 10% Fetal bovine serum) and treated with compounds dissolved in 0.1% DMSO, 24 h after seeding. The cells were incubated at 37° C. and 5% CO2 and after 72 h the plates were processed using CellTiter-Glo assay (Promega) following the manufacturer's instruction.
CellTiter-Glo is a homogenous method based on the quantification of the ATP present, an indicator of metabolitically active cells. ATP is quantified using a system based on luciferase and D-luciferin resulting into light generation. The luminescent signal is proportional to the number of cells present in culture.
Briefly, 25 μL/well of reagent solution are added to each well and after 5 minutes shaking microplates are read by a luminometer. The luminescent signal is proportional to the number of cells present in culture.

| SMILES | IC50 |
| --- | --- |
| Cc1csc2c1[C@@]13C[C@@H]1CN(C(=O)c1cc4cc(NC(=O)c5cc6cc(NC(=O)OC(C)(C)C)ccc6[nH]5)ccc4[nH]1)C3=CC2=O [compound 20, tert-butyl {2-[(2-{[(3bR,4aS)-3-methyl-8-oxo-4a,5-dihydro-4H-cyclopropa[c]thieno[3,2-e]indol-6(8H)-yl]carbonyl}-1H-indol-5-yl)carbamoyl]-1H-indol-5-yl}carbamate] | < 0.1 nM |
| Cc1csc2c(O)cc3c(c12)[C@H](CCl)CN3C(=O)c1cc2cc(OCCN3CCCC3)ccc2[nH]1 [Compd. 37, [(8S)-8-(chloromethyl)-4-hydroxy-1-methyl-7,8-dihydro-6H-thieno[3,2-e]indol-6-yl]{5-[2-(pyrrolidin-1-yl)ethoxy]-1H-indol-2-yl}methanone hydrochloride] | < 0.01 nM |
| Cc1csc2c1[C@]13C[C@H]1CN(C(=O)Nc1cc(C(=O)Nc4cc(C(=O)Nc5cc(C(=O)NCCC(N)=O)n(C)c5)n(C)c4)n(C)c1)C3=CC2=O [compound 9, (3bS,4aR)-N-(5-{[5-({5-[(3-amino-3-oxopropyl)carbamoyl]-1-methyl-1H-pyrrol-3-yl}carbamoyl)-1-methyl-1H-pyrrol-3-yl]carbamoyl}-1-methyl-1H-pyrrol-3-yl)-3-methyl-8-oxo-4a,5-dihydro-4H-cyclopropa[c]thieno[3,2-e]indole-6(8H)-carboxamide] | < 50 nM |
| Cc1csc2c(O)cc3c(c12)[C@H](CCl)CN3C(=O)c1ccc2c(NC(=O)c3ccc4cc[nH]c4c3)c[nH]c2c1 [Compd. 1] | < 50 nM |
| Cc1csc2c(O)cc3c(c12)[C@H](CCl)CN3C(=O)c1cc2cc(NC(=O)c3cc4cc(OCCN5CCCC5)ccc4[nH]3)ccc2[nH]1 [compound 17, N-(2-{[(8S)-8-(chloromethyl)-4-hydroxy-1-methyl-7,8-dihydro-6H-thieno[3,2-e]indol-6-yl]carbonyl}-1H-indol-5-yl)-5-[2-(pyrrolidin-1-yl)ethoxy]-1H-indole-2-carboxamide] | < 0.1 nM |
| Cc1csc2c1[C@]13C[C@H]1CN(C(=O)c1cc(NC(=O)c4cc(NC(=O)c5cc([N+](=O)[O-])cn5C)cn4C)cn1C)C3=CC2=O [compound 6, 1-methyl-N-(1-methyl-5-{[(3bS,4aR)-3-methyl-8-oxo-4a,5-dihydro-4H-cyclopropa[c]thieno[3,2-e]indol-6(8H)-yl]carbonyl}-1H-pyrrol-3-yl)-4-4{[(1-methyl-4-nitro-1H-pyrrol-2-yl)carbonyl]amino}-1H-pyrrole-2-carboxamide] | < 50 nM |
| Cc1csc2c1[C@]13C[C@H]1CN(C(=O)/C=C/c1c[nH]c4ncccc14)C3=CC2=O [Compd. 7, (3bS,4aR)-3-methyl-6-[(2E)-3-(1H-pyrrolo[2,3-b]pyridin-3-yl)prop-2-enoyl]-4,4a,5,6-tetrahydro-8H-cyclopropa[c]thieno[3,2-e]indo-8-one] | < 50 nM |
| Cc1csc2c1[C@@]13C[C@@H]1CN(C(=O)c1ccc4c(NC(=O)c5ccc6cc[nH]c6c5)c[nH]c4c1)C3=CC2=O [Compd. 5, N-(6-{[(3bR,4aS)-3-methyl-8-oxo-4a,5-dihydro-4H-cyclopropa[c]thieno[3,2-e]indol-6(8H)-yl]carbonyl}-1H-indol-3-yl)-1H-indole-6-carboxamide] | < 50 nM |
| Cc1csc2c(O)cc3c(c12)[C@H](CCl)CN3C(=O)c1cc2cc(NC(=O)c3cc4cc(NC(=O)OC(C)(C)C)ccc4[nH]3)ccc2[nH]1 [Compd. 18] | < 0.01 nM |
| Cc1csc2c1[C@@]13C[C@@H]1CN(C(=O)/C=C/c1c[nH]c4ncccc14)C3=CC2=O [compound 8, (3bR,4aS)-3-methyl-6-[(2E)-3-(1H-pyrrolo[2,3-b]pyridin-3-yl)prop-2-enoyl]-4,4a,5,6-tetrahydro-8H-cyclopropa[c]thieno[3,2-e]indol-8-one] | < 0.01 nM |

Same assay, conditions: Homo sapiens, A2780, 72 h, read-out: IC50 value

| SMILES | IC50 |
| --- | --- |
| Cc1csc2c(OC(=O)N3CCN(C)CC3)cc3c(c12)[C@H](CCl)CN3C(=O)c1cc2cc(NC(=O)c3cc4cc(N)ccc4[nH]3)ccc2[nH]1 [compound 23, (8S)-6-[(5-{[(5-amino-1H-indol-2-yl)carbonyl]amino}-1H-indo-2-yl)carbonyl]-8-(chloromethyl)-1-methyl-7,8-dihydro-6H-thieno[3,2-e]indol-4-yl 4-methylpiperazine-1-carboxylate hydrochloride] | < 50 nM |
| Cc1csc2c(OC(=O)N3CCN(C)CC3)cc3c(c12)[C@H](CCl)CN3C(=O)c1cc2cc(NC(=O)c3cc4cc(NC(=O)OC(C)(C)C)ccc4[nH]3)ccc2[nH]1 [Compd. 22, (8S)-6-({5-[({5-[(tert-butoxycarbonyl)amino]-1H-indol-2-yl}carbonyl)amino]-1H-indol-2-yl}carbonyl)-8-(chloromethyl)-1-methyl-7,8-dihydro-6H-thieno[3,2-e]indol-4-yl 4-methylpiperazine-1-carboxylate] | < 0.1 nM |
